According to US10765682B2 (LAM Therapeutics, Inc., priority 2014, dated 2020):

Test system: Yulac614 melanoma cells
Experiment: Yulac614 cell viability (CellTiter-Glo), drug library screen and 10 point validation with/without vemurafenib
Procedure: Duplicate drug-spotted plates were prepared and to them were added Yulac614 cells which were pre-treated with either DMSO (0.01% final) or vemurafenib (6 μM final). The Yulac614 cells were grown in OptiMEM (Life Technologies) containing 5% FBS (Sigma Aldrich F2442-500ML, Lot 12D370) Penicillin/Streptomycin (100×) (CellGro Ref 30-002). 30 uL of cells were dispensed per well using a Multidrop Combi (Thermo Fisher Scientific) to give a final cell density of 2,000 cells per well.
Plates were incubated for 72 h at 37° C. under an atmosphere of 5% CO2 in a humidified incubator. Cell viability was determined with CellTiter-Glo® luminescence assay (Promega) as per the manufacturer's instructions. Viability was expressed as a percentage of control (DMSO) cells. The viability of the library drug alone was compared to the library drug+vemurafenib and significant combinations were identified.
72 hours after compound addition relative cell viability was determined by CellTiter-Glo® luminescence assay (Promega) as per the manufacturer's instructions, and values were expressed as a percentage relative to vehicle (DMSO) treated control cells (set to 100%).

**Q.** Which IC20 does the source give for `Cc1cccc(/C=N/Nc2cc(N3CCOCC3)nc(OCCc3ccccn3)n2)c1` [apilimod, (E)-4-(6-(2-(3-methylbenzylidene)hydrazinyl)-2-(2-(pyridin-2-yl)ethoxy)pyrimidin-4-yl)morpholine] here?
**A.** 500 nM
